# Literature values, collected in patent publication US20060135540A1, “PPAR active compounds” (priority 2004, published 2006).
# Key:
# PPARδ = biological target: T1, PPARδ (Homo sapiens, UniProt Q03181)
# T1 sequence (Q03181 1-441): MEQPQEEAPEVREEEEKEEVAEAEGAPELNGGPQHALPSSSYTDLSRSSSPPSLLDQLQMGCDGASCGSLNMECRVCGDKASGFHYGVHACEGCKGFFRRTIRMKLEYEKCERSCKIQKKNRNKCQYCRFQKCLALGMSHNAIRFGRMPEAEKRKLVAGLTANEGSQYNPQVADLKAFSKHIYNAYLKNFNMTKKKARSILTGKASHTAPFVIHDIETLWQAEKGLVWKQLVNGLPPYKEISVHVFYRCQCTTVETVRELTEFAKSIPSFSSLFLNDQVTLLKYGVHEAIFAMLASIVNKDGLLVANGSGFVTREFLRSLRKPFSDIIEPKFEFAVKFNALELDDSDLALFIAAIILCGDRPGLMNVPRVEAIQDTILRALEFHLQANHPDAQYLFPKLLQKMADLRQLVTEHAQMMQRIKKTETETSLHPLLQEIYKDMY
# murine PPARα = biological target: T2, murine PPARα (Mus musculus, UniProt P23204)
# T2 sequence (P23204 1-468): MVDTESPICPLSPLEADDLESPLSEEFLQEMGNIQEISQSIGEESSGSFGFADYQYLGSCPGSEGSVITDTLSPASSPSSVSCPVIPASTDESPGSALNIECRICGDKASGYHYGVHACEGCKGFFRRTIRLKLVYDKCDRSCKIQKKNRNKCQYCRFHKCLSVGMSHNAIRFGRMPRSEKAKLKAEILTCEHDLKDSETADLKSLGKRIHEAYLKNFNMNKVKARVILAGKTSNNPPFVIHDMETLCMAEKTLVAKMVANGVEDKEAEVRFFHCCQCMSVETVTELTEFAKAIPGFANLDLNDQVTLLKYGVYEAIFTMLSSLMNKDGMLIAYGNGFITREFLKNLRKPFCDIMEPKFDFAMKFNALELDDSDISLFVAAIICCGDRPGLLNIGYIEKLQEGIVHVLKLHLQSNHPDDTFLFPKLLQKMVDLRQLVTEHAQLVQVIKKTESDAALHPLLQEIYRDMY
# [1] = patients, large prospective trial
agonist selectivity for PPARδ over PPARγ (PPARδ),activity on murine PPARα (murine PPARα),SMILES,reduction in cardiovascular events or death [1]
approximately 30 fold,inactive,CCCc1c(OCCCOc2ccc(OCC(=O)O)cc2)ccc(C(C)=O)c1O [Compound L-165041],–
–,–,Cc1ccc(C)c(OCCCC(C)(C)C(=O)O)c1 [gemfibrozil],22%
